# Values quoted from earlier work as cited in patent publication EP0114993B1, “Renin inhibitory tripeptides” (Merck & Co., Inc., priority 1982, dated 1990).
# Tested on: hog renin
# Details: after the injection of hog renin into nephrectomized rats; Gross et al., Science 175:656, 1971
substance,measurement,value
pepstatin,blood pressure in vivo,reduce blood pressure
